This is an account of results in patent US10479770B2, “Phosphatidylinositol 3-kinase inhibitors” (Gilead Sciences, Inc., priority 2016, dated 2019).

The target of the test is T1, PI3Kβ (Homo sapiens, UniProt P42338).
T1 construct: made in house
The experiment in a line: TR-FRET enzymatic activity assay against PI3K isoforms. The format is biochemical. Particulars: 2×Km ATP, 2 μM PIP2, 30 minutes at 25° C., recombinant heterodimeric PI3Kβ 25-50 pM, read-out: IC50-PIP-Beta. The method, then: The compounds of formula (I) were characterized for their enzymatic activity against the PI3K isoforms. The activities were measured using a time-resolved fluorescence resonance energy transfer (TR-FRET) assay. TR-FRET monitored the formation of 3,4,5-inositol triphosphate molecule that competed with fluorescently labeled PIPS for binding to the GRP-1 pleckstrin homology domain protein.
Class I PI3K isoforms were expressed and purified as heterodimeric recombinant proteins. All assay reagents and buffers for the TR-FRET assay were purchased from Millipore. […] The compounds were added to the assay solution and incubated for 30 minutes at 25° C. The reactions were terminated with a final concentration of 10 mM EDTA, 10 nM labeled-PIPS, and 35 nM Europium labeled GRP-1 detector protein before reading TR-FRET on an Envision plate reader (Ex: 340 nm; Em: 615/665 nm; 100 μs delay and 500 μs read window).
The results were normalized based on positive (1 μM wortmanin) and negative (DMSO) controls, and the IC50 values for PI3K α, β, δ, and γ were calculated from the fit of the dose-response curves to a four-parameter equation. These assays generally produced results within 3-fold of the reported mean.

Structures are written as SMILES.

T1 sequence (P42338 whole entry): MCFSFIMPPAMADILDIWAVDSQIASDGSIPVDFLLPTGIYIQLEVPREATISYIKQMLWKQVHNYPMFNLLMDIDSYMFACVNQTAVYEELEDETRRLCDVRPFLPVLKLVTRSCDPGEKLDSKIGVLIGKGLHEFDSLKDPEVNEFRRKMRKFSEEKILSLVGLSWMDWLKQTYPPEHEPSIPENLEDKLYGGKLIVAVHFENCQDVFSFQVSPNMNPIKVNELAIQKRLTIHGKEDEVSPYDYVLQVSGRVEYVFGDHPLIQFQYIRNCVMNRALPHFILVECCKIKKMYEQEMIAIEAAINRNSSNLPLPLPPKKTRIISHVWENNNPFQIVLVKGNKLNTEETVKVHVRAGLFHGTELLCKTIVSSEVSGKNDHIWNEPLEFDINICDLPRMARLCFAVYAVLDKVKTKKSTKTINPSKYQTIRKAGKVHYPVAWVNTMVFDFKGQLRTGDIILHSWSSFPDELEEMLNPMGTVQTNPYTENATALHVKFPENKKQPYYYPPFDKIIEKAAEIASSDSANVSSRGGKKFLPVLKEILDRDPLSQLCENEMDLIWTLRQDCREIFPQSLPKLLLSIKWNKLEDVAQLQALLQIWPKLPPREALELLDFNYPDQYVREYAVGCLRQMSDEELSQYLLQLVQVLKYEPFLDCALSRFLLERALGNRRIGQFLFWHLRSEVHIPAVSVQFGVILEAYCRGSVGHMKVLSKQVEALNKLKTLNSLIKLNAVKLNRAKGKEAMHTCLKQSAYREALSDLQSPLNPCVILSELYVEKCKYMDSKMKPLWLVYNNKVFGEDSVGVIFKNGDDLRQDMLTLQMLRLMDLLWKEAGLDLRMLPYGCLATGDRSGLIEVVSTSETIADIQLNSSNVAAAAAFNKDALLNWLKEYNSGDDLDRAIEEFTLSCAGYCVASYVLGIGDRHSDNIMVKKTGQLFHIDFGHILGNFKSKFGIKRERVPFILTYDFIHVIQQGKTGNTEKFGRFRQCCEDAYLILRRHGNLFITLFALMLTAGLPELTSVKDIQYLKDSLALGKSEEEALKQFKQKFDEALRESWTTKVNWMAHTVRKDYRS
T1 sequence (P27986 whole entry partner): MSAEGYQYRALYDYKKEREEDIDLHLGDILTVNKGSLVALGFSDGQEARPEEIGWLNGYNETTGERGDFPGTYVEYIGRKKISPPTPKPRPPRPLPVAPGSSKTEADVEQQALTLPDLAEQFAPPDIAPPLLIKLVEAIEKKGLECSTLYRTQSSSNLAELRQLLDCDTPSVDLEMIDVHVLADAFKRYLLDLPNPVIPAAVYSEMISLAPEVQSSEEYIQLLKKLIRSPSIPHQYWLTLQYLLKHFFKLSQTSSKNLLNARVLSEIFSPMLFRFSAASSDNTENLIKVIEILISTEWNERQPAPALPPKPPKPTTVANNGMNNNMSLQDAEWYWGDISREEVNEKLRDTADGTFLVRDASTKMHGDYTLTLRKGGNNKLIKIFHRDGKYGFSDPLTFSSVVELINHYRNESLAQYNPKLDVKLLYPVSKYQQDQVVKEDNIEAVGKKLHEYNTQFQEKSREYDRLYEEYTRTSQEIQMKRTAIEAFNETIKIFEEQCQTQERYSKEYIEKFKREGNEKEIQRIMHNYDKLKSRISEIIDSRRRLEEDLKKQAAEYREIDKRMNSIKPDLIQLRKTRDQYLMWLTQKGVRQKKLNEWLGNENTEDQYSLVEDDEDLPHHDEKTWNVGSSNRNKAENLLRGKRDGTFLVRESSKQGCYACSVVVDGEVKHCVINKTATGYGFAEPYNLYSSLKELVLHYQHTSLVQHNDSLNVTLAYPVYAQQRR

For orientation: IC50 means the point on the concentration scale where inhibition reaches its midpoint. With `CCCc1nc2c(-c3nnc[nH]3)cc(N3CCOCC3)cc2n1-c1cccc2c(F)cccc12` (single isomer, unassigned) [Compound 6-1, 4-[3-(5-fluoronaphthalen-1-yl)-2-propyl-7-(4H-1,2,4-triazol-3-yl)benzimidazol-5-yl]morpholine], the IC50 amounted to 42 nM.
Under `CCCc1nc2c(-c3nnc[nH]3)cc(N3CCOCC3)cc2n1-c1cccc2c(F)cccc12` (single isomer, unassigned) [Compound 6-2, 4-[3-(5-fluoronaphthalen-1-yl)-2-propyl-7-(4H-1,2,4-triazol-3-yl)benzimidazol-5-yl]morpholine] stands 3 nM.
In the case of `COC(=O)c1cc(N2CCOCC2)cc2c1nc(C)n2-c1cccc2ccccc12` [Compound 2-1, methyl 1-(naphthalen-1-yl)-2-methyl-6-morpholino-1H-benzo[d]imidazole-4-carboxylate] it was 140 nM.
Regarding `COC(=O)c1cc(N2CCOCC2)cc2c1ncn2-c1cccc2ccccc12` [Compound 2-2, methyl 6-morpholin-4-yl-1-naphthalen-1-ylbenzimidazole-4-carboxylate], the IC50 was determined as 230 nM.
`CCOC(=O)c1nc2c(C(=O)OC)cc(N3CCOCC3)cc2n1-c1cccc2ccccc12` [Compound 2-3, 2-O-ethyl 4-O-methyl 6-morpholin-4-yl-1-naphthalen-1-ylbenzimidazole-2,4-dicarboxylate]: the IC50 turned out to be 700 nM.
For the compound `O=C(O)c1cc(N2CCOCC2)cc2c1ncn2-c1cccc2ccccc12` [Compound 3-1, 6-morpholin-4-yl-1-naphthalen-1-ylbenzimidazole-4-carboxylic acid], the concentration for half-maximal inhibition (IC50) was above 10000 nM.
In the case of `Cc1nc2c(C(=O)O)cc(N3CCOCC3)cc2n1-c1cccc2ccccc12` [Compound 3-2, 2-methyl-6-morpholin-4-yl-l-naphthalen-1-ylbenzimidazole-4-carboxylic acid] it was 1800 nM.
Under `Cc1nc2c(C(N)=O)cc(N3CCOCC3)cc2n1-c1ccc(F)c2ccccc12` [Compound 4-1, 1-(4-fluoronaphthalen-1-yl)-2-methyl-6-morpholino-1H-benzo[d]imidazole-4-carboxamide] stands 87 nM.
Turning to `Cc1nc2c(C(N)=O)cc(N3CCOCC3)cc2n1-c1cnc2c(Cl)cccc2c1` [Compound 4-2, 1-(8-chloroquinolin-3-yl)-2-methyl-6-morpholino-1H-benzo[d]imidazole-4-carboxamide], the IC50 amounted to 2300 nM.
In the case of `Cc1nc2c(C(N)=O)cc(N3CCOCC3)cc2n1-c1cnc2cccc(Cl)c2c1` [Compound 4-3, 1-(5-chloroquinolin-3-yl)-2-methyl-6-morpholino-lH-benzo[d]imidazole-4-carboxamide] it was 390 nM; in that of `Cc1nc2c(C(N)=O)cc(N3CCOCC3)cc2n1-c1cccc2c(F)cccc12` [Compound 4-4, 1-(5-fluoronaphthalen-1-yl)-2-methyl-6-morpholin-4-ylbenzimidazole-4-carboxamide], 13 nM.
In the case of `Cc1nc2c(-c3nnc[nH]3)cc(N3CCOCC3)cc2n1-c1ccc(F)c2ccccc12` [Compound 5-1, 4-(1-(4-fluoronaphthalen-1-yl)-2-methyl-4-(4H-1,2,4-triazol-3-yl)-1H-benzo[d]imidazol-6-yl)morpholine] it was 9 nM; in that of `Cc1nnc(-c2cc(N3CCOCC3)cc3c2nc(C)n3-c2ccc(F)c3ccccc23)[nH]1` [Compound 5-2, 4-[3-(4-fluoronaphthalen-1-yl)-2-methyl-7-(5-methyl-4H-1,2,4-triazol-3-yl)benzimidazol-5-yl]morpholine], 43 nM.
Regarding `Cc1nc2c(-c3nnc[nH]3)cc(N3CCOCC3)cc2n1-c1cnc2ccc(Cl)cc2c1` [Compound 5-3, 4-(1-(6-chloroquinolin-3-yl)-2-methyl-4-(4H-1,2,4-triazol-3-yl)-1H-benzo[d]imidazol-6-yl)morpholine], the half-inhibitory concentration (IC50) came to 4200 nM.
In the case of `CCc1nc2c(-c3nnc[nH]3)cc(N3CCOCC3)cc2n1-c1cnc2ccccc2c1` [Compound 5-4, 4-(2-ethyl-1-(quinolin-3-yl)-4-(4H-1,2,4-triazol-3-yl)-lH-benzo[d]imidazol-6-yl)morpholine] it was 1200 nM.
On to `Cc1nc2c(-c3nnc[nH]3)cc(N3CCOCC3)cc2n1-c1cnc2cc(Cl)ccc2c1` [Compound 5-5, 4-(1-(7-chloroquinolin-3-yl)-2-methyl-4-(4H-1,2,4-triazol-3-yl)-1H-benzo[d]imidazol-6-yl)morpholine], for which the IC50 was 1200 nM.
In the case of `Cc1nc2c(-c3nnc[nH]3)cc(N3CCOCC3)cc2n1-c1cnc2ccccc2c1` [Compound 5-6, 4-(2-methyl-1-(quinolin-3-yl)-4-(4H-1,2,4-triazol-3-yl)-1H-benzo[d]imidazol-6-yl)morpholine], the IC50 worked out at 720 nM.
Take `Cc1nc2c(-c3nnc[nH]3)cc(N3CCOCC3)cc2n1-c1cnc2c(Cl)cccc2c1` [Compound 5-7, 4-(1-(8-chloroquinolin-3-yl)-2-methyl-4-(4H-1,2,4-triazol-3-yl)-H-benzo[d]imidazol-6-yl)morpholine]: the IC50 worked out at 190 nM.
On to `Cc1nc2c(-c3nnc[nH]3)cc(N3CCOCC3)cc2n1-c1cnc2cccc(Cl)c2c1` [Compound 5-8, 4-(1-(5-chloroquinolin-3-yl)-2-methyl-4-(4H-1,2,4-triazol-3-yl)-1H-benzo[d]imidazol-6-yl)morpholine], for which the IC50 worked out at 28 nM.
Consider `CCc1nc2c(-c3nnc[nH]3)cc(N3CCOCC3)cc2n1-c1ccc2ccccc2n1` [Compound 5-9, 4-(2-ethyl-1-(quinolin-2-yl)-4-(4H-1,2,4-triazol-3-yl)-1H-benzo[d]imidazol-6-yl)morpholine], for which the half-maximal inhibitory concentration (IC50) stood at 220 nM.
In the case of `Cc1nc2c(-c3nnc[nH]3)cc(N3CCOCC3)cc2n1-c1ccc2ccccc2c1` [Compound 5-10, 4-(2-methyl-1-(naphthalen-2-yl)-4-(4H-1,2,4-triazol-3-yl)-1H-benzo[d]imidazol-6-yl)morpholine] it was 38 nM; in that of `CCCc1nc2c(-c3nnc[nH]3)cc(N3CCOCC3)cc2n1-c1cccc2c(F)cccc12` [Compound 5-11, 4-[3-(5-fluoronaphthalen-1-yl)-2-propyl-7-(4H-1,2,4-triazol-3-yl)benzimidazol-5-yl]morpholine], 6 nM.
On to `Fc1cccc2c(-n3cnc4c(-c5nnc[nH]5)cc(N5CCOCC5)cc43)cccc12` [Compound 5-12, 4-[3-(5-fluoronaphthalen-1-yl)-7-(4H-1,2,4-triazol-3-yl)benzimidazol-5-yl]morpholine], for which the half-inhibitory concentration (IC50) was 2 nM.
Take `Cc1nc2c(-c3nnc[nH]3)cc(N3CCOCC3)cc2n1-c1cccc2c(F)cccc12` [Compound 5-13, 4-[3-(5-fluoronaphthalen-1-yl)-2-methyl-7-(4H-1,2,4-triazol-3-yl)benzimidazol-5-yl]morpholine]: the IC50 was found to be 5 nM.
`Cc1nc2c(-c3nnc[nH]3)cc(N3CCOCC3)cc2n1-c1cc2ccccc2cn1` [Compound 5-14, 4-(1-(isoquinolin-3-yl)-2-methyl-4-(4H-1,2,4-triazol-3-yl)-1H-benzo[d]imidazol-6-yl)morpholine]: the half-maximal inhibitory concentration (IC50) came to 580 nM.
On to `Cc1nnc(-c2cc(N3CCOCC3)cc3c2nc(C)n3-c2cc3ccccc3cn2)[nH]1` [Compound 5-15, 4-(1-(isoquinolin-3-yl)-2-methyl-4-(5-methyl-4H-1,2,4-triazol-3-yl)-1H-benzo[d]imidazol-6-yl)morpholine], for which the IC50 amounted to 3400 nM.
